Measured values published in patent US20210308138A1, “TISSUE TRANSGLUTAMINASE MODULATORS FOR MEDICINAL USE” (Aarhus Universitet, priority 2018, published 2021).

Tested on: diabetic male BKS(D)-Leprdb/JOrlRj homozygous mice
Assay: Long-term in vivo treatment of diabetic mice, endothelial function as acetylcholine-induced relaxation of small mesenteric arteries
Conditions: LDN-27219 8 mg/kg/12 h IP for 3 weeks vs candesartan cilexetil 3 mg/kg/24 h in drinking water
Method: For long-term ‘in vivo’ experiments, stocks of LDN-27219 dissolved in PEG-400 were diluted in saline solution containing SBE-b-CD to improve solubility (9 mg/mL NaCl; 15% (w/v) SBE-b-CD) […], resulting in a final concentration of 2.00 mg/mL of LDN-27219 in 10% PEG-400/90%(15% (w/v) SBE-b-CD in saline solution). For the treatment on the drinking water 1 mg/ml Candesartan cilexetil was dissolved in a vehicle of polyethylene glycol 400 (10% v/v), ethanol (5% v/v), cremophor EL (2% v/v), and tap water (83% v/v) and the pH was adjusted to 9.0 with 0.5 mol/L Na2CO3 prior to dilution to the final concentration in tap water, as previously described (Seltzer A., et al., Brain Res., 2004, 1028(1), 9-18). Final concentrations needed to achieve the desired doses of candesartan cilexetil per day were determined by measuring water consumption each 3-4 days.
For long-term ‘in vivo’ studies, diabetic homozygous mice were randomly allocated into three groups: 1) treatment with Intraperitoneal (IP) injections of LDN-27219 (8 mg/kg/12 h) and vehicle drinking water [LDN-27219 treatment group], or 2) treatment with IP injections of vehicle (each 12 h) and candesartan cilexetil (3 mg/kg/24 h) in the drinking water [candesartan treatment group], or 3) treatment with IP injections of vehicle (each 12 h) and vehicle drinking water [vehicle treatment group]. […]

NNC(=O)CSc1nc2scc(-c3ccccc3)c2c(=O)n1-c1ccccc1 [LDN-27219]
prevention of diabetes-related endothelial dysfunction: able to prevent diabetes-related endothelial dysfunction better than the long-term treatment with angiotensin II receptor antagonist candesartan cilexetil
